A short description of data set [1]: clearance of the cyanines in the human body. The data set is classed as in vivo. From the text: (§1) The present targeting molecule is very selective and very specific in binding to necrotic cells. […] For the present invention four specific cyanines are selected, namely HQ4, HQ5, CW-800 and ZW-800. These molecules are found to have a high affinity towards the intracellular proteins, including tubulin and actin. […] As a result very low concentrations c.q. amounts of the present system may be used to provide advantageous effects thereof. It is noted that apoptosis specific probes, in contrast to necrosis specific probes will also target healthy tissue as apoptosis is involved in normal tissue turnover. The present cyanine is attached to a second entity, namely a chelator, wherein the chelator is selected from DOTA and NOTA (DOTA: 1,4,7,10-Tetraazacyclododecane-1,4,7,10-tetraacetic acid and NOTA: 1,4,7-triazacyclononane-N,N′,N″-triacetic acid). Attached to the chelator is attached a third entity, namely a radionuclide selected from Cu, In, Gd, Ga, Lu, Y, I, and Zr. The present system is found to be effective as a medicament, also referred to as drug, for cancers selected from esophagus, pharynx and larynx, lung, brain, and intestines. These cancers are considered to relate to and being associated with the Central Nervous system, the respiratory tract, the gastro-intestinal tract, […], and head-neck region, respectively. […]

Data set [2] deals with intracellular proteins, including tubulin and actin. As to the kind of experiment: binding of cyanine targeting molecules to intracellular proteins.
Excerpt: as §1

Turning to `CC1(C)C(/C=C/C2=C(Oc3ccc(S(=O)(=O)O)cc3)C(=C/C=C3/N(CCCCS(=O)(=O)O)c4ccc(S(=O)(=O)[O-])cc4C3(C)C)/CCC2)=[N+](CCCCCC(=O)O)c2ccc(S(=O)(=O)O)cc21` [CW-800], the “clearance in the human body” value in data set [1] is on record as “cleared in the human body specifically well”. Further, in data set [2], the “affinity towards the intracellular proteins” value is reported as “high affinity”.

Source of the values: patent publication US20220175974A1, “TARGETING COMPOUNDS FOR CANCERS SELECTED FROM ESOPHAGUS, PHARYNX AND LARYNX, LUNG, BRAIN, AND INTESTINES” (HQ MEDICAL NETHERLANDS B.V., priority 2019, published 2022).
